Experimental findings from patent US10233188B2, “CDK2/4/6 inhibitors” (priority 2016, dated 2019) are described below.

The target in one assay is CDK2/Cyclin E1 (Homo sapiens (Human), UniProt P24941). Nature of the assay: biochemical. Conditions: CDK2_Ki (nM), phosphorylated CDK2/Cyclin E1, 150 μM ATP, Morrison tight-binding fit.
The target of the next assay is CDK6/Cyclin D1 (Homo sapiens (Human), UniProt Q00534). Nature of the assay: biochemical. Particulars: CDK6_Ki (nM), non-phosphorylated CDK6/Cyclin D1, 2 mM ATP, Morrison fit.
CDK6/Cyclin D1, sequence (Q00534 whole entry): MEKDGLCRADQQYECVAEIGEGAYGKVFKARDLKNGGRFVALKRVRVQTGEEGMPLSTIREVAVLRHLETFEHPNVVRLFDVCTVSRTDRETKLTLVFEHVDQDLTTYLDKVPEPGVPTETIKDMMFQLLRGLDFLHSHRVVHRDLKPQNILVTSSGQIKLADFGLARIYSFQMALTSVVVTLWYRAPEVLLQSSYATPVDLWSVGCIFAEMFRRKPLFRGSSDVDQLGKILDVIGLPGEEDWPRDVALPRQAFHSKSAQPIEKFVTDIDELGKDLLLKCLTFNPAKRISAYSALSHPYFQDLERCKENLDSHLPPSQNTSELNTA
CDK6/Cyclin D1, sequence (P24385 whole entry partner): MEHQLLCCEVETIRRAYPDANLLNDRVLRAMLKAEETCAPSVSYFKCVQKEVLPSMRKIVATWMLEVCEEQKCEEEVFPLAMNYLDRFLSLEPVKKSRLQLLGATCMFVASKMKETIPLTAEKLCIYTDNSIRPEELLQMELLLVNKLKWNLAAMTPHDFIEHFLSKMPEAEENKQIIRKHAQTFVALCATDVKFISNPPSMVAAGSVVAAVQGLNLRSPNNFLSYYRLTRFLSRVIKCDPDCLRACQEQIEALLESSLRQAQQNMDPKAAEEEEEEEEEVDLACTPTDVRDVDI

Experimental for CDK2/Cyclin E1: The assay was initiated with the addition of ATP, following a fifteen minutes pre-incubation of enzyme and inhibitor at room temperature in the reaction mixture. The reaction was stopped after 45 minutes at room temperature by the addition of 50 μL of 80 mM EDTA, pH 7.5.

As to `C[C@@]1(O)CCC[C@H]1n1c(=O)ccc2cnc(NC3CCN(S(=O)(=O)CS(C)(=O)=O)CC3)nc21` [Example 190, 8-[(1R,2R)-2-hydroxy-2-methylcyclopentyl]-2-[(1-{[(methylsulfonyl)methyl]sulfonyl}piperidin-4-yl)amino]pyrido[2,3-d] pyrimidin-7(8H)-one], the Ki on CDK2/Cyclin E1 was found to be 0.51 nM; on CDK6/Cyclin D1 it was 184 nM.
For `COCCS(=O)(=O)N1CCC(Nc2ncc3ccc(=O)n([C@@H]4CCCC4(C)O)c3n2)CC1` (single isomer, unassigned) [Example 72, (−)-8-[(1R*,2R*)-2-hydroxy-2-methylcyclopentyl]-2-({1-[(2-methoxyethyl)sulfonyl]piperidin-4-yl}amino)pyrido[2,3-d]pyrimidin-7(8H)-one], in that order: 0.42 nM and 1.09 nM.
In the same order, the values of `CC[C@@]1(O)CCC[C@H]1n1c(=O)c(Cl)cc2cnc(NC3CCN(S(C)(=O)=O)CC3)nc21` (single isomer, unassigned) [Example 195, (−)-6-chloro-8-[(1R*,2R*)-2-ethyl-2-hydroxycyclopentyl]-2-{[1-(methylsulfonyl)piperidin-4-yl]amino}pyrido[2,3-d]pyrimidin-7(8H)-one] are 5.49 nM and 4.68 nM.
For `CS(=O)(=O)N1CCC(Nc2ncc3cc(Cl)c(=O)n([C@@H]4CC[C@@H](O)C4)c3n2)CC1` (single isomer, unassigned) [Example 170, (−)-6-chloro-8-[(1R*,3R*)-3-hydroxycyclopentyl]-2-{[1-(methylsulfonyl)piperidin-4-yl]amino}pyrido[2,3-d]pyrimidin-7(8H)-one], the Ki was found to be 6.03 nM on CDK2/Cyclin E1 and 1.82 nM on CDK6/Cyclin D1.
For `C[C@H]1CCC[C@H]1n1c(=O)c(Cl)cc2cnc(NC3CCN(S(C)(=O)=O)CC3)nc21` [Example 38, 6-chloro-8-[(1R,2S)-2-methylcyclopentyl]-2-{[1-(methylsulfonyl)piperidin-4-yl]amino}pyrido[2,3-d]pyrimidin-7(8H)-one], in that order: 0.27 nM and 0.42 nM.
On to `CS(=O)(=O)N1CC[C@H](Nc2ncc3cc(CC(N)=O)c(=O)n(C4CCCC4)c3n2)[C@@H](F)C1` (single isomer, unassigned) [Example 160, (−)-2-(8-cyclopentyl-2-{[(3S*,4S*)-3-fluoro-1-(methylsulfonyl)piperidin-4-yl]amino}-7-oxo-7,8-dihydropyrido[2,3-d]pyrimidin-6-yl)acetamide], for which the Ki at CDK2/Cyclin E1 came out at 4.07 nM; on CDK6/Cyclin D1, 3.55 nM.
In the case of `COC(C)(C)CNS(=O)(=O)N1CCC(Nc2ncc3ccc(=O)n([C@H]4CCC[C@]4(C)O)c3n2)CC1` (single isomer, unassigned) [Example 61, (+)-4-({8-[(1R*,2R*)-2-hydroxy-2-methylcyclopentyl]-7-oxo-7,8-dihydropyrido[2,3-d]pyrimidin-2-yl}amino)-N-(2-methoxy-2-methylpropyl)piperidine-1-sulfonamide], the Ki is 4.55 nM at CDK2/Cyclin E1 and 19.7 nM at CDK6/Cyclin D1.
Take `CS(=O)(=O)N1CCC(Nc2ncc3cc(C(F)F)c(=O)n([C@H]4CC[C@H](O)C4)c3n2)CC1` (relative stereo) [Example 134, (+)-6-(difluoromethyl)-8-[(1R*,3R*)-3-hydroxycyclopentyl]-2-{[1-(methylsulfonyl)piperidin-4-yl]amino}pyrido[2,3-d]pyrimidin-7(8H)-one]: the results for the inhibition constant Ki at CDK2/Cyclin E1 and at CDK6/Cyclin D1 were 1.25 nM and 0.53 nM, respectively.
For `COCCS(=O)(=O)N1CCC(Nc2ncc3ccc(=O)n(C4CCCC4)c3n2)CC1` [Example 15, 8-cyclopentyl-2-({1-[(2-methoxyethyl)sulfonyl]piperidin-4-yl}amino)pyrido[2,3-d]pyrimidin-7(8H)-one], in that order: 0.46 nM and 0.76 nM.
For `C[C@]1(O)CCC[C@@H]1n1c(=O)c(CO)cc2cnc(NC3CCN(S(C)(=O)=O)CC3)nc21` (single isomer, unassigned) [Example 186, (+)-6-(hydroxymethyl)-8-[(1R*,2R*)-2-hydroxy-2-methylcyclopentyl]-2-{[1-(methylsulfonyl)piperidin-4-yl]amino}pyrido[2,3-d]pyrimidin-7(8H)-one], in that order: 5.65 nM and 3.62 nM.
In the same order, the values of `C[C@@]1(O)CCC[C@H]1n1c(=O)ccc2cnc(NC3CCN(S(=O)(=O)CF)CC3)nc21` (single isomer, unassigned) [Example 58, (−)-2-({1-[(fluoromethyl)sulfonyl]piperidin-4-yl}amino)-8-[(1R*,2R*)-2-hydroxy-2-methylcyclopentyl]pyrido[2,3-d]pyrimidin-7(8H)-one] are 0.27 nM and 0.49 nM.
For the compound `C[C@@]1(O)CCC[C@H]1n1c(=O)c(C(F)(F)F)cc2cnc(NC3CCN(S(C)(=O)=O)CC3)nc21` [Example 132, 8-[(1R,2R)-2-hydroxy-2-methylcyclopentyl]-2-{[1-(methylsulfonyl)piperidin-4-yl]amino}-6-(trifluoromethyl)pyrido[2,3-d]pyrimidin-7(8H)-one], the values for the Ki on CDK2/Cyclin E1 and at CDK6/Cyclin D1 were 0.57 nM and 0.37 nM, respectively.
As to `C[C@@]1(O)CCC[C@H]1n1c(=O)ccc2cnc(NC3CCN(S(=O)(=O)NC4CCOCC4)CC3)nc21` (single isomer, unassigned) [Example 68, (−)-4-({8-[(1R*,2R*)-2-hydroxy-2-methylcyclopentyl]-7-oxo-7,8-dihydropyrido[2,3-d]pyrimidin-2-yl}amino)-N-(tetrahydro-2H-pyran-4-yl)piperidine-1-sulfonamide], the Ki at CDK2/Cyclin E1 is 0.41 nM; on CDK6/Cyclin D1 it was 3.23 nM.
In the same order, the values of `COCc1cc2cnc(NC3CCN(S(C)(=O)=O)CC3)nc2n([C@@H]2CCC[C@@H]2C)c1=O` [Example 48, 6-(methoxymethyl)-8-[(1R,2S)-2-methylcyclopentyl]-2-{[1-(methylsulfonyl)piperidin-4-yl]amino}pyrido[2,3-d]pyrimidin-7(8H)-one] are 1.39 nM and 0.54 nM.
As to `CC1CCC[C@@H]1n1c(=O)c(CC(N)=O)cc2cnc(NC3CCN(S(C)(=O)=O)CC3)nc21` (stereo in doubt) [Example 166, 2-(8-[(1S,2S)-2-methylcyclopentyl]-2-{[1-(methylsulfonyl)piperidin-4-yl]amino}-7-oxo-7,8-dihydropyrido[2,3-d]pyrimidin-6-yl)acetamide], the figures for the Ki on CDK2/Cyclin E1 and on CDK6/Cyclin D1 were 2.23 nM and 6.71 nM, respectively.
`CNS(=O)(=O)N1CCC(Nc2ncc3ccc(=O)n([C@@H]4CCC[C@@H]4C)c3n2)CC1` [Example 44, N-methyl-4-({8-[(1R,2S)-2-methylcyclopentyl]-7-oxo-7,8-dihydropyrido[2,3-d]pyrimidin-2-yl}amino)piperidine-1-sulfonamide]: the Ki on CDK2/Cyclin E1 turned out to be 0.09 nM; at CDK6/Cyclin D1, 0.82 nM.
As to `C[C@@H]1[C@@H](O)CC[C@@H]1n1c(=O)ccc2cnc(NC3CCN(S(C)(=O)=O)CC3)nc21` (single isomer, unassigned) [Example 209, (+)-8-[(1R*,2R*,3R*)-3-hydroxy-2-methylcyclopentyl]-2-{[1-(methylsulfonyl)piperidin-4-yl]amino}pyrido[2,3-d]pyrimidin-7(8H)-one], the Ki at CDK2/Cyclin E1 is 0.5 nM; at CDK6/Cyclin D1, 0.75 nM.
In the same order, the values of `C[C@@]1(O)CCC[C@H]1n1c(=O)ccc2cnc(NC3CCN(S(=O)(=O)C4CCS(=O)(=O)C4)CC3)nc21` (single isomer, unassigned) [Example 70] are 0.35 nM and 0.83 nM.
In the same order, the values of `CNS(=O)(=O)N1CCC(Nc2ncc3cc(C)c(=O)n([C@@H]4CCC[C@@H]4C)c3n2)CC1` [Example 42, N-methyl-4-({6-methyl-8-[(1R,2S)-2-methylcyclopentyl]-7-oxo-7,8-dihydropyrido[2,3-d]pyrimidin-2-yl}amino)piperidine-1-sulfonamide] are 155 nM and 46.1 nM.
For `CNS(=O)(=O)N1CCC(Nc2ncc3cc(C(F)F)c(=O)n([C@H]4CCC[C@]4(C)O)c3n2)CC1` (single isomer, unassigned) [Example 131, (+)-4-({6-(difluoromethyl)-8-[(1R*,2R*)-2-hydroxy-2-methylcyclopentyl]-7-oxo-7,8-dihydropyrido[2,3-d]pyrimidin-2-yl}amino)-N-methylpiperidine-1-sulfonamide], the results for the inhibitory constant (Ki) on CDK2/Cyclin E1 and on CDK6/Cyclin D1 were 3.24 nM and 23.1 nM, respectively.
For `Cn1cnc(S(=O)(=O)N2CCC(Nc3ncc4ccc(=O)n([C@@H]5CCC[C@@]5(C)O)c4n3)CC2)c1` (single isomer, unassigned) [Example 84, (−)-8-[(1R*,2R*)-2-hydroxy-2-methylcyclopentyl]-2-({1-[(1-methyl-1H-imidazol-4-yl)sulfonyl]piperidin-4-yl}amino)pyrido[2,3-d]pyrimidin-7(8H)-one], in that order: 0.08 nM and 0.92 nM.
`C[C@@]1(O)CCC[C@H]1n1c(=O)ccc2cnc(NC3CCN(S(N)(=O)=O)CC3)nc21` (single isomer, unassigned) [Example 183, (−)-4-({8-[(1R*,2R*)-2-hydroxy-2-methylcyclopentyl]-7-oxo-7,8-dihydropyrido[2,3-d]pyrimidin-2-yl}amino)piperidine-1-sulfonamide]: the Ki stood at 0.1 nM at CDK2/Cyclin E1 and 1.99 nM on CDK6/Cyclin D1.
Turning to `CNS(=O)(=O)N1CCC(Nc2ncc3cc(F)c(=O)n([C@@H]4CCC[C@@]4(C)O)c3n2)CC1` (single isomer, unassigned) [Example 124, (−)-4-({6-fluoro-8-[(1R*,2R*)-2-hydroxy-2-methylcyclopentyl]-7-oxo-7,8-dihydropyrido[2,3-d]pyrimidin-2-yl}amino)-N-methylpiperidine-1-sulfonamide], the Ki on CDK2/Cyclin E1 turned out to be 0.69 nM; on CDK6/Cyclin D1, 3.84 nM.
For `C[C@@]1(O)CCC[C@H]1n1c(=O)c(C(F)F)cc2cnc(NC3CCN(S(N)(=O)=O)CC3)nc21` (single isomer, unassigned) [Example 187, (−)-4-({6-(difluoromethyl)-8-[(1R*,2R*)-2-hydroxy-2-methylcyclopentyl]-7-oxo-7,8-dihydropyrido[2,3-d]pyrimidin-2-yl}amino)piperidine-1-sulfonamide], the values for the Ki on CDK2/Cyclin E1 and at CDK6/Cyclin D1 were 0.08 nM and 0.29 nM, respectively.

The term Ki denotes a dissociation constant, usually derived from enzyme kinetics or from competition with a known ligand. A low value points to higher affinity.
